In US20240410907A1, “FLUORESCENT ION INDICATORS AND THEIR APPLICATIONS” (AAT Bioquest, Inc., priority 2023, published 2024):

What was measured:
[1] = Excitation and fluorescence spectra in TRIS buffer (pH 7.0) in the presence of 100 mM NaCl; type: physicochemical; conditions: 2.5 μM, TRIS buffer pH 7.0, 100 mM NaCl, FIG. 3
Protocol: (§1) FIG. 3. The spectral comparison of SBFI and Compound 8. SBFI (2.5 μM) and Compound 8 (2.5 μM) are dissolved in TRIS buffer (pH 7.0). The excitation and fluorescence spectra are recorded in the presence of 100 mM NaCl. […] The strong and sharp fluorescence emission peak is a critical characteristic required for multicolor analysis.

[2] = Absorption spectra in TRIS buffer (pH 7.0) in the presence of 100 mM NaCl; type: physicochemical; conditions: 10 μM, TRIS buffer pH 7.0, 100 mM NaCl, FIG. 1
Protocol: (§2) FIG. 1. The absorption spectral comparison of SBFI and Compound 8. SBFI (10 μM) and Compound 8 (10 μM) are dissolved in TRIS buffer (pH 7.0). The absorption spectra are recorded in the presence of 100 mM NaCl. […] A longer absorption wavelength minimizes the background caused by naturally occurring biological substances.

[3] = Sodium ion response, fluorescence intensity with 60 mM NaCl (Fmax) or without NaCl (F0); conditions: 2.5 μM, Tris-HCl buffer pH 7, 60 mM NaCl (Fmax) vs no NaCl (F0), FIG. 5
Protocol: FIG. 5. Comparisons of Compound 8 and SBFI to sodium ion responses. SBFI (2.5 μM) and Compound 8 (2.5 μM) are added in Tris-HCl buffer (pH-7) with 60 mM NaCl (Fmax) or without NaCl (F0) and their fluorescence intensities are recorded. […] SBFI=Black column; Compound 8=Grey column.

[4] = Excitation and fluorescence spectra in TRIS buffer (pH 7.0) in the presence of 100 mM KCl; type: physicochemical; conditions: 2.5 μM, TRIS buffer pH 7.0, 100 mM KCl, FIG. 4
Protocol: as §1, with “4.” for “3.”, “PBFI” for “SBFI”, “12. PBFI” for “8. SBFI”, “12” for “8”, “KCl.” for “NaCl.”, “[…]” for “sharp fluorescence emission peak”

[5] = Absorption spectra in TRIS buffer (pH 7.0) in the presence of 100 mM KCl; type: physicochemical; conditions: 10 μM, TRIS buffer pH 7.0, 100 mM KCl, FIG. 2
Protocol: as §2, with “2.” for “1.”, “PBFI” for “SBFI”, “12. PBFI” for “8. SBFI”, “12” for “8”, “KCl.” for “NaCl.”

[6] = Potassium ion response, fluorescence intensity with 60 mM KCl (Fmax) or without KCl (F0); conditions: 2.5 μM, Tris-HCl buffer pH 7.0, 60 mM KCl (Fmax) vs no KCl (F0), FIG. 6
Protocol: FIG. 6. Comparisons of Compound 12 and PBFI to potassium ion responses. PBFI (2.5 μM) and Compound 12 (2.5 μM) are added in Tris-HCl buffer (pH 7.0) with 60 mM KCl (Fmax) or without KCl (F0) and their fluorescence intensities are recorded. […] PBFI=Black column; Compound 12=Grey column.

| fluorescence emission compared with PBFI [4] | SMILES | fluorescence emission peak compared with SBFI [1] | absorption wavelength compared with SBFI [2] | sodium ion response compared with SBFI [3] | absorption wavelength compared with PBFI [5] | potassium ion response compared with PBFI [6] |
| --- | --- | --- | --- | --- | --- | --- |
| – | COc1ccccc1N1CCOCCOCCN(c2cc(C(=O)O)c(-c3c4cc(F)c(=O)cc-4oc4cc(O)c(F)cc34)cc2OC)CCOCC1 [Compound 8] | much stronger and sharper fluorescence emission peak | much longer absorption wavelength than SBFI | much stronger sodium ion response than SBFI | – | – |
| much stronger and sharper | COc1ccccc1N1CCOCCOCCN(c2cc(C(=O)O)c(-c3c4cc(F)c(=O)cc-4oc4cc(O)c(F)cc34)cc2OC)CCOCCOCC1 [Compound 12] | – | – | – | much longer absorption wavelength than PBFI | much stronger potassium ion response than PBFI |
